# Results reported in ChEMBL document CHEMBL1201862, “PubChem BioAssay data set” (2004).
# Activity calls are given as the source filed them.
# Key:
# [1] = Luminescence Cell-Based Dose Confirmation HTS to Identify Activators of 5'UTR Stem-Loop Driven Alpha-Synuclein mRNA Translation in H4 Neuroglioblastoma Cells. [Related pubchem assays: 1829 (Project Summary), 1814 (Primary HTS)]; format: functional
# [2] = Luminescence Cell-Based Dose Response HTS to Identify Activators of Luciferase Translation or Activity in H4 […] Cells. [Related pubchem assays: 1829 (Project Summary), 1814 (Primary HTS)]; format: functional
# H4 = experiment: Luminescence Cell-Based Dose Response HTS to Identify Activators of 5'UTR Stem-Loop Driven Prion Protein mRNA Translation in H4 Neuroglioblastoma Cells. [Related pubchem assays: 1829 (Project Summary), 1814 (Primary HTS)]; format: functional; conditions: Homo sapiens
# [3] = microbe, parasite or virus in culture; format: functional; conditions: Mycobacterium tuberculosis
# cells = format: functional
# Fatty acid synthase [4] = target: T1, Fatty acid synthase (Homo sapiens, UniProt P49327); experiment: inhibition of human FAS-TE enzyme activity – biochemical, endpoint fluorescence intensity, uHTS hits, dose response (AID 624327); format: functional;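 note: fluorescence from hydrolysis of an O-methyl fluorescein acyl ester substrate by the enzyme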
# Fatty acid synthase [5] = target: T1, Fatty acid synthase; experiment: inhibition of human FAS-TE enzyme activity – biochemical, kinetic fluorescence intensity, dose response (AID 624326); format: functional;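 note: rate of fluorescence rise from hydrolysis of a fluorogenic O-methyl fluorescein ester substrate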
# [6] = Luminescence Cell-Based Dose Retest to Confirm Inhibitors of Cancer Stem Cells. [Related pubchem assays (depositor defined):AID2717, AID2721]; format: functional; conditions: Homo sapiens
# [7] = target: T2, Ubiquitin-conjugating enzyme E2 N (Homo sapiens, UniProt P61088); format: functional;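 note: Dose-response confirmation in a TR-FRET assay detecting UBC13-driven polyubiquitin chain formation, inhibition measured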
# T2 sequence (P61088 whole entry): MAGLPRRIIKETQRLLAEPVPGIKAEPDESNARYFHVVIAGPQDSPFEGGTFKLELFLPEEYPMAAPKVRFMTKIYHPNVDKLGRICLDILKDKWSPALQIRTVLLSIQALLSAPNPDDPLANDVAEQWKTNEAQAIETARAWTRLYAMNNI
# Vero = experiment: cells; format: functional; conditions: Chlorocebus sabaeus
# [8] = NIH-3T3 fibroblast cytotoxicity, dose response, cytotoxicity control, cell-based, fluorescence, Alamar Blue, secondary assay (AID 2327); format: functional;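 note: NIH-3T3 mouse fibroblasts cultured with fluconazole at 8 µg/mL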
# [9] = fluconazole-exposed Candida albicans growth modulators – fluorescence, retest, confirmation (AID 2467); format: functional, cell-based
# [10] = target: Heat shock protein HSP 90-alpha (Homo sapiens, UniProt P07900); format: functional, organism-based
# [11] = target: T3, RNA-binding protein pos-1 (Caenorhabditis elegans, UniProt G5EF15); experiment: disruptors of C. elegans POS-1 RNA interaction – biochemical, fluorescence polarization, dose response (AID 1964);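 note: purified POS-1 fused to maltose binding protein made in E. coli; potency of compounds blocking POS-1 binding to fluorescent RNA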
# T3 sequence (G5EF15 whole entry): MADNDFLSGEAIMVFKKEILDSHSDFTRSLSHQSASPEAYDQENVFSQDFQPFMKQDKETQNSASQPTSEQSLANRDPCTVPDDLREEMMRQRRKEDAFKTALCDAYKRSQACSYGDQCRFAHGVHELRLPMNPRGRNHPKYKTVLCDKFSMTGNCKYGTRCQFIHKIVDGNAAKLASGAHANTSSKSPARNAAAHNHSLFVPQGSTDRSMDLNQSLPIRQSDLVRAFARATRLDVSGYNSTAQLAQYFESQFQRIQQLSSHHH
# [12] = target: T4, Zinc finger protein mex-5 (Caenorhabditis elegans, UniProt Q9XUB2); experiment: potency of MEX-5 RNA-binding blockers – biochemical, C. elegans, fluorescence polarization, dose response (AID 1960)
# T4 sequence (Q9XUB2 whole entry): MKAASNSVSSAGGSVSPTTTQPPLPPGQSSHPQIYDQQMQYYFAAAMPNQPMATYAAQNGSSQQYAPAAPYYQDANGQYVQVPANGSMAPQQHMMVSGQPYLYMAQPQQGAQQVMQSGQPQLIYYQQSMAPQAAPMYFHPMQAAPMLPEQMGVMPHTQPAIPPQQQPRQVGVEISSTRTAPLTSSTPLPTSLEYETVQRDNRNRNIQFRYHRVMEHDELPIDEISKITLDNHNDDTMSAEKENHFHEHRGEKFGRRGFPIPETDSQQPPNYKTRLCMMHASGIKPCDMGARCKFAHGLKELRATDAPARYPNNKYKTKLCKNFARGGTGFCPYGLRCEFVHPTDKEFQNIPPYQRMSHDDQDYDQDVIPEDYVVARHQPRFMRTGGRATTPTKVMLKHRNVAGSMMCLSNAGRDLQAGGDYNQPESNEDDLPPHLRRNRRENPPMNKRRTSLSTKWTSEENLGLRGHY
# H9c2 = experiment: cells; format: functional, cell-based; conditions: Rattus norvegicus, H9c2, Myocardium;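 note: confirmatory concentration-response retest of ultra-high-throughput screening hits for modulation of myocardial damage; cell death induced by hydrogen peroxide oxidative stress; compound pretreatment for 60 min then peroxide exposure for 2 h; potency is for protecting the cells against peroxide damage rather than for killing them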
# [13] = target: T5, Replicative DNA helicase DnaB (Mycobacterium tuberculosis, UniProt P9WMR3); experiment: DnaB intein splicing inhibitors, dose response, biochemical, cell-free fluorescence (AID 449749); format: functional
# T5 sequence (P9WMR3 whole entry): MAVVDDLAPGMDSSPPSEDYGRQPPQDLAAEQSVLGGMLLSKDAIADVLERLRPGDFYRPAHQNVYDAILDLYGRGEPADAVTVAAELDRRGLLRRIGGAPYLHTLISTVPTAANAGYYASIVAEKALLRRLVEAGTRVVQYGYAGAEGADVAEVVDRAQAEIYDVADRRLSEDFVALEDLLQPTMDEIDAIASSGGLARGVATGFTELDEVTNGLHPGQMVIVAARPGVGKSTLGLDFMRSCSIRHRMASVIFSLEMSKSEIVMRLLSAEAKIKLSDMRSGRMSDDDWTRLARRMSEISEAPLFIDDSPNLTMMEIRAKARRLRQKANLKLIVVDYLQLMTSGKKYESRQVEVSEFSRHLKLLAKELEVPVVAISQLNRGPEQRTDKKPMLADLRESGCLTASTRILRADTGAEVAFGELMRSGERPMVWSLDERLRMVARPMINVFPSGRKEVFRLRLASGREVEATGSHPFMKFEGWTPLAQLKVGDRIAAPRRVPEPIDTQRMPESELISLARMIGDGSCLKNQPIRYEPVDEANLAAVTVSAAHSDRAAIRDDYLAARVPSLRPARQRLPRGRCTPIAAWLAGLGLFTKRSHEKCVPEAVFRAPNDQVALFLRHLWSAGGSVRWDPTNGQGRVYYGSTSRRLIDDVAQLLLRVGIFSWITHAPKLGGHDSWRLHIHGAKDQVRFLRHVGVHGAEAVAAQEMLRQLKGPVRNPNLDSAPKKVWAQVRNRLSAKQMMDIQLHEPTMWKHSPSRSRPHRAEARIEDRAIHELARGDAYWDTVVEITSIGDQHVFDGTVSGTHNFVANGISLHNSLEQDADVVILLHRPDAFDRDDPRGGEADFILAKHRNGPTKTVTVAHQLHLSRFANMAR
# Protein RecA = target: T6, Protein RecA (Mycobacterium tuberculosis, UniProt P9WHJ3); experiment: Fluorescence Cell-Free Homogeneous Dose Retest to Identify Inhibitors of RecA-Intein Splicing Activity. [Related pubchem assays (depositor defined):AID2097, AID2223, AID489010, AID492950]; format: functional
# T6 sequence (P9WHJ3 whole entry): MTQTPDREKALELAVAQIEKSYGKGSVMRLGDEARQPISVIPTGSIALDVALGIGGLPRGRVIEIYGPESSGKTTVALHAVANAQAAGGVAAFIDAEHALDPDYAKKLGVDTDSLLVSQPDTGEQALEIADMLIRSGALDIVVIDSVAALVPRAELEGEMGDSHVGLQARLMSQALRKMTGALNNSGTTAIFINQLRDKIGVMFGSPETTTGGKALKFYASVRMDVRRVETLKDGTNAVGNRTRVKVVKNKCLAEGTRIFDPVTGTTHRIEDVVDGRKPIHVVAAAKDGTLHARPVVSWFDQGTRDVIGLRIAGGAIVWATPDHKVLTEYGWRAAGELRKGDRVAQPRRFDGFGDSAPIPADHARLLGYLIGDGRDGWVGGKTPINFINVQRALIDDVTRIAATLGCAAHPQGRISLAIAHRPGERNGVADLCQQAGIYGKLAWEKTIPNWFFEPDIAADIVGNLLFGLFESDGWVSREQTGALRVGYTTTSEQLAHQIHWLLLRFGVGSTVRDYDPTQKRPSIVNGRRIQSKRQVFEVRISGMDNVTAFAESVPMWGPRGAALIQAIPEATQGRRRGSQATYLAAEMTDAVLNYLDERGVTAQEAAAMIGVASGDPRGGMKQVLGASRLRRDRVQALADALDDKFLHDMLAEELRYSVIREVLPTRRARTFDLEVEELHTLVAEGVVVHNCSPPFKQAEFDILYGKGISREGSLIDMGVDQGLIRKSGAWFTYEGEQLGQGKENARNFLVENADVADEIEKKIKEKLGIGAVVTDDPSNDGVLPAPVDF
# T1 sequence (P49327 whole entry): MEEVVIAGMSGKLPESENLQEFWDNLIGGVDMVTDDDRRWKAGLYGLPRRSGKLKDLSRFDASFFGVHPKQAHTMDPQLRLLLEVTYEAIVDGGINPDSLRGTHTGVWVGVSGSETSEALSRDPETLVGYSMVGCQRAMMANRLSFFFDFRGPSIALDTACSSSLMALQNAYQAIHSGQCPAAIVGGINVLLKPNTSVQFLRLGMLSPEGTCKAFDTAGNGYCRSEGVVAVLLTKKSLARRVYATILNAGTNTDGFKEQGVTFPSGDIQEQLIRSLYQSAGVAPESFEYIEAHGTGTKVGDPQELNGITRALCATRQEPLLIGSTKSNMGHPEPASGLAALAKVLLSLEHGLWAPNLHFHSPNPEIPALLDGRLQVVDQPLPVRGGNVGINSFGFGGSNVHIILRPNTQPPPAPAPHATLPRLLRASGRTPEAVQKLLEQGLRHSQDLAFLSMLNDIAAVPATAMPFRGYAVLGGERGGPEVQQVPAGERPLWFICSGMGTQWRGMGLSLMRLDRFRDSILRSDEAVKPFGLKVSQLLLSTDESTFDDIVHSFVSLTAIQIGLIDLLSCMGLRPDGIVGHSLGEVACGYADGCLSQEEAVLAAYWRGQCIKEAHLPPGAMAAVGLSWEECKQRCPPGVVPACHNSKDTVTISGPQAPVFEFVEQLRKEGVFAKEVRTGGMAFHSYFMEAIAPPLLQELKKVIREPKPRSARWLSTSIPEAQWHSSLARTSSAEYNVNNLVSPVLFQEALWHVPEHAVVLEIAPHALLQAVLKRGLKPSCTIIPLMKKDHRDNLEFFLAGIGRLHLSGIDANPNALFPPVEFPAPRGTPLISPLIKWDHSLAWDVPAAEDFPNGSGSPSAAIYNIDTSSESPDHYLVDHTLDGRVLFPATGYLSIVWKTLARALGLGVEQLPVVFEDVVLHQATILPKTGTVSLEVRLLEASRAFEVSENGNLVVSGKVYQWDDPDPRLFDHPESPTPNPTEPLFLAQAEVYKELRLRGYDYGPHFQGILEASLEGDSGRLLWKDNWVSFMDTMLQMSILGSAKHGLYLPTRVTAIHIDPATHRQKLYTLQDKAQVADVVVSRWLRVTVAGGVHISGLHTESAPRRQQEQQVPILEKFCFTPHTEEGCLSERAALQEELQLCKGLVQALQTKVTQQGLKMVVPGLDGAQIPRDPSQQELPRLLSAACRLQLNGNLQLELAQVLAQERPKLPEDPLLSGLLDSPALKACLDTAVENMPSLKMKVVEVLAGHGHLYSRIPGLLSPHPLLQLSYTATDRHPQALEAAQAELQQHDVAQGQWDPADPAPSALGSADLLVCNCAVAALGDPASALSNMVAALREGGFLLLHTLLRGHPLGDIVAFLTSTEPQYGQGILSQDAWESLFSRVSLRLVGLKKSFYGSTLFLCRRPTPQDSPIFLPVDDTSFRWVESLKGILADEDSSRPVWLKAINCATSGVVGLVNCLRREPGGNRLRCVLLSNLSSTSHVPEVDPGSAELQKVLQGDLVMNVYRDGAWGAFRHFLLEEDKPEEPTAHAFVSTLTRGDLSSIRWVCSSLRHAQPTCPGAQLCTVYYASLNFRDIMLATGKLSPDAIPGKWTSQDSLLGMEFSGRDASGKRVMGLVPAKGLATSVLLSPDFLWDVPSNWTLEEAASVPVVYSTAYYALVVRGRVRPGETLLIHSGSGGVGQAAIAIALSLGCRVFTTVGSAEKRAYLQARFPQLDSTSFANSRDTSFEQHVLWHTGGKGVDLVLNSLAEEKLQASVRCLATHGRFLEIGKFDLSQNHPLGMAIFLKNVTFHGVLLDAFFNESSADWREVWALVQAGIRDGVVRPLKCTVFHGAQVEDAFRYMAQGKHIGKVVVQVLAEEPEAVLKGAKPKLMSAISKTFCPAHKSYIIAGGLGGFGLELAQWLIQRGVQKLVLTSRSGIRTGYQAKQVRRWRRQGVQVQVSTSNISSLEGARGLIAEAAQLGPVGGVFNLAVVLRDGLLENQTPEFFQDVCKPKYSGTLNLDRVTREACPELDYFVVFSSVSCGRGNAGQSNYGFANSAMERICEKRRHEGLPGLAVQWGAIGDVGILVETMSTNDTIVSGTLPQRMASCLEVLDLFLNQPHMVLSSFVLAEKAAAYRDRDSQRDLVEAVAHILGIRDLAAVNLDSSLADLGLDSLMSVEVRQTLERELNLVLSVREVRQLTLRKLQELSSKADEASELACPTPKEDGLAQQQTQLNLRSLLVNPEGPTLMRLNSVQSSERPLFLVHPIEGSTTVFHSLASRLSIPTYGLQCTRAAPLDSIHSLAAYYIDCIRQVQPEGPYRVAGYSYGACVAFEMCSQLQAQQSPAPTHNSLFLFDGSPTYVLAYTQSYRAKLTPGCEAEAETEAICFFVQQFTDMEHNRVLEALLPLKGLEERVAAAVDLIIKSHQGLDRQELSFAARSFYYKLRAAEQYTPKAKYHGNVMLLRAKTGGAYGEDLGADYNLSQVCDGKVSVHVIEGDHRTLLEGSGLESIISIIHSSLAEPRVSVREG
smiles,measurement,setting,value
CSC1=NC(/C=C/c2ccc(Cl)cc2)=CC(C)(C)N1,EC50,[1],14.3 µM (active)
same,EC50,[2],> 120 µM (not active)
same,EC50,H4,> 120 µM (not active)
same,CC50,[3],11.1 µM (active)
CC(C)Cc1cc(C(=O)Nc2ccc(F)cc2F)no1,IC50,cells,12 µM (active)
O=C(COc1ccc([N+](=O)[O-])cc1)Nc1ccc2c(c1)CCC2,IC50,Fatty acid synthase [4],14.6 µM (active)
same,IC50,Fatty acid synthase [5],6.78 µM (active)
COc1ccccc1-c1sc2cc3c(cc2c1C#Cc1cncn1C)OCO3,AC50,[6],4.18 µM (active)
same,IC50,[7],> 20 µM (inactive)
COc1ccc2[nH]c(C(=O)N3CCC(CO)(Cc4cccc(C(F)(F)F)c4)CC3)c(C)c2c1,CC50,Vero,> 25 µM (active)
CCOc1ccc(Nc2nc(NCC3CCCO3)c3ccccc3n2)cc1 (configuration not stated),EC50,[8],33.5 µM (inconclusive)
same,EC50,[9],2.32 µM (active)
same,IC50,[7],> 20 µM (inactive)
Nc1ccc2cc(Br)ccc2c1,IC50,cells,25.7 µM (active)
COc1cc(OC)c(C2=NOC(C(=O)N3CCc4ccccc4C3)C2)cc1Cl (configuration not stated),IC50,Fatty acid synthase [4],3.02 µM (active)
same,IC50,Fatty acid synthase [5],2.28 µM (active)
O=C1CC(N2CCCN(C3CC(=O)N(c4ccc(F)cc4)C3=O)CC2)C(=O)N1c1ccc(F)cc1 (configuration not stated),AC50,[10],4.32 µM (active)
COc1ccc(C2=NOC(COC(=O)c3ccc4ccccc4n3)C2)cc1 (configuration not stated),EC50,[1],17.2 µM (active)
same,EC50,[2],> 120 µM (not active)
same,EC50,H4,4.71 µM (active)
same,IC50,cells,9.07 µM (active)
CCc1ccc(S(=O)(=O)c2nnn3c2nc(NCCNC(C)=O)c2ccccc23)cc1,IC50,Fatty acid synthase [4],3.84 µM (active)
same,IC50,Fatty acid synthase [5],3.5 µM (active)
CC(=O)N1CCN(S(=O)(=O)c2cccc(C(=O)OCc3ccc(C(C)(C)C)cc3)c2)CC1,IC50,Fatty acid synthase [4],0.376 µM (active)
same,IC50,Fatty acid synthase [5],0.205 µM (active)
Cc1ccc(N2C(=O)C3C4C=CC(CN=C(S)N5CCN(c6ccccn6)CC5)(O4)C3C2=O)cc1 (configuration not stated),AC50,[10],7.77 µM (active)
O=C(O)CCC(=O)NNc1nc(-c2ccccc2)c2cc(Cl)ccc2n1,EC50,[11],> 300 µM (not active)
same,EC50,[12],9.18 µM (active)
CN1CCN(CCCNC(=O)c2cn(C3CCCCC3)c(=O)c3c2c2ccccc2n3C)CC1,IC50,[7],> 20 µM (inactive)
NC(=O)c1nsc(C(=O)N(c2ccccc2F)C(C(=O)NCc2ccc(F)cc2)c2ccc(O)cc2)c1N (configuration not stated),IC50,[7],> 20 µM (inactive)
same,IC50,H9c2,29.8 µM (active)
CC(=O)OCCN(C)c1cc(SC(C)C)c2nonc2c1[N+](=O)[O-],IC50,cells,41.4 µM (active)
same,AC50,[13],> 380 µM (inactive)
same,EC50,Protein RecA,> 380 µM (inactive)
O=C(NCc1ccccc1)/C(=C/c1cccc([N+](=O)[O-])c1)NC(=O)c1ccco1,IC50,Fatty acid synthase [4],4.49 µM (active)
same,IC50,Fatty acid synthase [5],4.38 µM (active)
CN(Cc1ccco1)c1ncnc2ccc(-c3ccc4c(ccn4C)c3)cc12,CC50,[3],15.4 µM (active)
same,AC50,[6],0.499 µM (active)
CCN(CC)C(=O)C1CCCN(c2ccc([N+](=O)[O-])cc2/C=N/NC(=O)c2cccc(O)c2)C1 (configuration not stated),IC50,Fatty acid synthase [4],1.93 µM (active)
same,IC50,Fatty acid synthase [5],1.57 µM (active)
CCc1ccc(C(=O)NNC(=O)c2ccc(=O)n(C)n2)cc1,EC50,[11],> 300 µM (not active)
same,EC50,[12],6.42 µM (active)
Cc1ccccc1C(CC(=O)c1cccs1)C(C#N)C#N (configuration not stated),AC50,[13],> 380 µM (inconclusive)
same,EC50,Protein RecA,1.17 µM (active)
same,CC50,Vero,17 µM (active)
Cc1cccc(C(=O)Oc2ccc(/C=N/NC(=O)Cc3ccc([N+](=O)[O-])cc3)cc2)c1,IC50,[7],> 20 µM (inactive)
O=C(N/N=C/c1ccc(-c2cccc([N+](=O)[O-])c2)o1)c1ccc([N+](=O)[O-])cc1,EC50,[11],> 300 µM (not active)
same,EC50,[12],> 300 µM (not active)
same,IC50,H9c2,> 79 µM (inactive)
Cc1ccc(C(=O)CSc2nc3c(=O)n(C)c(=O)n(C)c3[nH]2)cc1,EC50,[11],> 300 µM (not active)
same,EC50,[12],> 300 µM (not active)
O=C(N/N=C/C=C/c1cccc([N+](=O)[O-])c1)c1ccncc1,IC50,cells,34.9 µM (active)
COc1ccc(/C=C2/Sc3ccc(C(=O)NCCN4CCCCCC4)cc3NC2=O)cc1,IC50,[7],> 20 µM (inactive)
CC(/C=C/c1cccc([N+](=O)[O-])c1)=N\NC(=O)c1ccncc1,IC50,cells,0.94 µM (active)
C/C(=N\Nc1ncc(Cl)cc1Cl)c1ccc(OC(F)F)cc1,IC50,Fatty acid synthase [4],16.1 µM (active)
same,IC50,Fatty acid synthase [5],14.2 µM (active)
COC(=O)CCCCCN1C(=O)/C(=C\c2ccncc2)SC1=S,IC50,cells,7.86 µM (active)
same,AC50,[13],12.2 µM (active)
same,EC50,Protein RecA,17.7 µM (active)
COc1c(O)cccc1[C@@H](O)C1CCN(CCc2ccc(F)cc2)CC1,EC50,[11],13.8 µM (active)
same,EC50,[12],14.1 µM (inconclusive)
CCn1nnc(NC(=O)c2ccc(-c3ccc(Cl)cc3)o2)n1,IC50,cells,> 50 µM (active)
